Laboratory results reported in patent US20240124510A1, “Cyclic Glycoaminoacid Derivatives” (TFCHEM, priority 2021, published 2024).
“And” between values parts separate entries of the source, which are not always exact repeats. Identical values can stand only once. Like-named read-outs stand apart in the source and are kept apart here.

Assays:
[1] = test system: human preadipocytes; assay: Lipid index (AdipoRed area*intensity, imaging) in preadipocytes in inflammatory condition; type: cell-based; conditions: for Lipid Index (Adipored area * intensity), Mean / Lipid Index (Adipored area * intensity), Values: normalized by cells number (DAPI); for Lipid Index (Adipored area * intensity), Values: individual values
Procedure: (§1) Preadipocytes have been isolated from human female hypodermis (body mass index <30 kg/m2 and <45 years old). Preadipocytes have been cultured for 24 h in 100 μl of DMEM-10% Fetal Bovine Serum (FBS) in 96-well plates. Then cells were treated to induce their differentiation in a classical or an inflammatory environment for 13 days.
(§2) To induce the preadipocytes differentiation cells were incubated in a proadipogenic cocktail (PAC) including insulin, glucocorticoid, 3-isobutyl-1-methylxanthine (IBMX), and thiazolinedione in DMEM.
(§3) To induce a fibro-inflammatory environment, cells were treated with an activated human macrophage-conditioned medium (AcMC) prepared in RPMI medium. A treatment with Dexamethasone (DXM) at 100 nM was used as anti-inflammatory response control. At D0: preadipocytes have been treated in the following conditions: • “Undifferentiation”: DMEM+¼ RPMI medium • “Differentiation”: PAC+¼ RPMI medium • “AcMC” i.e. inflammatory condition: PAC+¼ AcMC • “AcMC+DXM”: PAC+[…] AcMC+anti-inflammatory DXM at 100 nM • “AcMc+compounds”: PAC+14 AcMC+compounds to be tested
All conditions have been performed in triplicate. The medium has been changed every 2 days for 13 days.
A second analysis of lipid accumulation was performed with an imaging acquisition and quantification. The area and the intensity of the lipid droplets were evaluated and quantified for more accurate data. An index was calculated (area*intensity of the AdipoRed staining) and normalized by cells number.
Lipid accumulation and Lipid index were evaluated for each condition. Data are represented in percentage of proinflammatory control condition (AcMC condition).

[2] = test system: Collagen I fibers; assay: Quantity of Collagen 1 fibers produced by preadipocytes in inflammatory condition (immunofluorescence); type: cell-based, human; conditions: for Collagen I fibers quantity, Mean (%) / Collagen I fibers quantity, Values (%): inflammatory condition, normalized by cells number (Dapi); for Collagen I fibers quantity, Values (%): individual values; for Collagen I fibers quantity compared to the AcMC control condition fixed at 100%: preadipocytes
Procedure: as §1, §2, §3
One month after fixation of preadipocytes cultivated in pro-inflammatory environment, cells were incubated with 3% Bovine Serum Albumin (BSA) for 30 min in order to block the non-specific sites, then with primary antibody anti-collagen 1 (Novusbio, NB600-408) over-night. After washes with PBS, cells were incubated for 30 min with 3% BSA and then with the secondary antibodies (Goat anti-rabbit alexa-fluor 488, ThermoFisher, A11008) and DAPI (for nuclei staining) for 1 h. After several washes, the acquisition and the quantification were performed with a fluorescent video-microscope. Briefly, the quantification was based on the detection and quantification of cell nuclei stained with DAPI, and the detection of collagen 1 staining. Collagen 1 fibers were detected and measured for their length, thickness and intensity. A Collagen 1 fibers quantity was calculated (Quantity=length*thickness*fluorescence intensity) and normalized by cells number (DAPI staining).
Collagen I fibers (fibrillar collagen I) quantity was quantified and the data were normalized by cell number (DAPI staining, quantification of nuclei number). Data are represented in percentage of proinflammatory control conditions (AcMC condition).

[3] = test system: normal human dermal fibroblasts (NHDF); assay: Protection of NHDF under UVA irradiation, MTT reduction assay; type: cell-based
Procedure: The protective effects of compound 6 was assessed in normal human dermal fibroblasts (NHDF). The viability of UVA-irradiated NHDF using a standard MTT reduction assay was tested. Prior to these assays, a preliminary cytotoxicity assay was performed on NHDF, using a standard WST-8 reduction assay and morphological observations with a microscope, in order to determine the concentrations to be tested.
• Cell type: NHDF, Bioalternatives reference PF2 used at the 8th passage • Culture conditions: 37° C., 5% CO2 • Culture medium: DMEM supplemented with L-glutamine 2 mM, Penicillin 50 U/ml • Streptomycin 50 μg/ml, Fetal calf serum (FCS) 10% • Irradiation medium: EBSS supplemented with CaCl2 0.2 g/l, MgSO4 0.2 g/l • Test compound: the compound 6 (MM=356.3 g/mol) was diluted in culture medium at final concentration of 1.25 and 2.5 mg/ml
Fibroblasts were seeded in 96-well plates and cultured in culture medium for 24 hours. The medium was then replaced by culture medium containing or not (irradiated control) the test compounds and the cells were pre-incubated for 24 hours. After pre-incubation, the medium was removed and replaced by irradiation medium and the cells were irradiated with 35 J/cm^2. The lamp used was a SOL500 Sun Simulator equipped with an H1 filter (Dr. Hönle, AG). After irradiation, the medium was removed and replaced by assay medium containing or not (irradiated control) the test compounds and the cells were incubated for 24 hours. A non-irradiated control condition was performed in parallel. All experimental conditions were performed in n=5, except for the control conditions in n=12.
At the end of incubation, the cells were incubated with MTT (tetrazolium salt) reduced in blue formazan crystals by succinate dehydrogenase (mitochondrial enzyme). This transformation is proportional to the enzyme activity. After cell dissociation and formazan crystal solubilization using DMSO, the optical density (OD) of the extracts at 540 nm, proportional to the number of living cells and their metabolic activity, was recorded with a microplate reader (VERSAmax, Molecular Devices).
Raw data were analyzed using Microsoft Excel© software. The inter-group comparisons were performed by an unpaired Student's t-test.
The standard error of the mean (sem) is a measure of how far the sample mean is likely to be from the true population mean. The sem is calculated as the standard deviation (sd) divided by the square root of sample size (n). Standard error of the mean: sem=sd/√n Percentage of viability: viability (%)=(OD sample/OD control)×100
The cell viability (OD 540 nm) from irradiated culture added with tested compound was compared with irradiated control culture and the percentage of viability was calculated.

N[C@H]1CCCN(CC(F)(F)[C@]2(O)O[C@H](CO)[C@H](O)[C@H](O)[C@H]2O)C1=O [Compound 6]
Lipid Index (Adipored area * intensity), Mean ([1]; AcMC + 1 mg/ml): 158.6 % of AcMC condition | Lipid Index (Adipored area * intensity), Values ([1]; AcMC + 1 mg/ml): 150.8 % of AcMC condition and 156.6 % of AcMC condition and 168.4 % of AcMC condition | Lipid Index (Adipored area * intensity), Mean ([1]; AcMC + 2 mg/ml): 297.9 % of AcMC condition | Lipid Index (Adipored area * intensity), Values ([1]; AcMC + 2 mg/ml): 286.0 % of AcMC condition and 338.7 % of AcMC condition and 269.0 % of AcMC condition | Lipid index compared to AcMC control ([1]; both concentration, inflammatory media): increased | Collagen I fibers quantity, Mean (%) ([2]; 1 mg/ml): 154 % of AcMC condition | Collagen I fibers quantity, Values (%) ([2]; 1 mg/ml): 136.7 % of AcMC condition and 160.5 % of AcMC condition and 165.3 % of AcMC condition | Collagen I fibers quantity, Mean (%) ([2]; 2 mg/ml): 213 % of AcMC condition | Collagen I fibers quantity, Values (%) ([2]; 2 mg/ml): 193.5 % of AcMC condition and 230.7 % of AcMC condition and 213.7 % of AcMC condition | Collagen I fibers quantity compared to the AcMC control condition fixed at 100% ([2]; 1 mg/ml): 154% | Collagen I fibers quantity compared to the AcMC control condition fixed at 100% ([2]; 2 mg/ml): 213% | Mean OD (540 nm) ([3]; 1.25 mg/ml, UVA 35 J/cm^2, MTT): 0.13 | Mean OD (540 nm) ([3]; 2.5 mg/ml, UVA 35 J/cm^2, MTT): 0.15 | viability at 1250 µg/mL ([3]; Homo sapiens, light or radiation study, 1.25 mg/ml, UVA 35 J/cm^2, MTT, read-out: % Irradiated control (viability)): 116% | viability at 2500 µg/mL ([3]; Homo sapiens, light or radiation study, 2.5 mg/ml, UVA 35 J/cm^2, MTT, read-out: % Irradiated control (viability)): 130% | viability at 2500 µg/mL ([3]; Homo sapiens, light or radiation study, UVA 35 J/cm2, 2.5 mg/ml, read-out: Cell viability, % of the irradiated control): 130%
